≈ marks a conversion by molar mass, not a printed value. Blank lines part the entries; values can stand above or below the compound they belong to.
Experiments:
Assay in all cases: ≥ marks a high value that may be exact or a test limit, other limits are often not marked, values filed in µg/mL are converted to µM
[1] = test system: Pseudomonas aeruginosa 253
[2] = test system: Pseudomonas aeruginosa 910
[3] = test system: Pseudomonas aeruginosa 919
[4] = test system: Pseudomonas aeruginosa PAO1
Bacillus megaterium Bm11 = test system: Bacillus megaterium Bm11
[5] = test system: Candida albicans ATCC 10231
[6] = test system: Escherichia coli ATCC 25922
[7] = test system: Staphylococcus aureus Cowan 1
Staphylococcus capitis 1 = test system: Staphylococcus capitis 1
[8] = test system: Yersinia pseudotuberculosis YPIII
[9] = test system: Bacillus subtilis ATCC 6633
[10] = test system: Escherichia coli ATCC 10536
[11] = test system: Pseudomonas aeruginosa ATCC BAA-427
[12] = test system: Staphylococcus aureus ATCC 25923
Botrytis cinerea = test system: Botrytis cinerea
[13] = test system: Escherichia coli ATCC 11775
[14] = test system: Staphylococcus aureus ATCC 12600
[15] = test system: Escherichia coli DH5alpha
[16] = test system: Staphylococcus aureus ATCC 9144
[17] = test system: Bacillus subtilis CMCC 63501
[18] = test system: Bacillus subtilis KCTC 3068
Candida parapsilosis = test system: Candida parapsilosis
[19] = test system: Enterococcus faecalis ATCC 29212
Escherichia coli K-12 = test system: Escherichia coli K-12
[20] = test system: Escherichia coli KCTC 1682
Escherichia coli UB1005 = test system: Escherichia coli UB1005
[21] = test system: Pseudomonas aeruginosa ATCC 27853
[22] = test system: Pseudomonas aeruginosa KCTC 1637
[23] = test system: Salmonella enterica subsp. enterica serovar Typhimurium ATCC 14028
[24] = test system: Salmonella typhimurium ATCC 7731
[25] = test system: Salmonella typhimurium KCTC 1926
[26] = test system: Staphylococcus aureus ATCC 29213
[27] = test system: Staphylococcus aureus KCTC 1621
[28] = test system: Staphylococcus epidermidis ATCC 12228
[29] = test system: Staphylococcus epidermidis KCTC 1917
Escherichia coli JM109 = test system: Escherichia coli JM109
[30] = test system: Staphylococcus aureus ATCC 6538P
Staphylococcus aureus = test system: Staphylococcus aureus

SMILES: CC[C@H](C)[C@H](NC(=O)[C@@H](N)Cc1ccccc1)C(=O)N[C@@H](CCCCN)C(=O)N[C@@H](Cc1c[nH]c2ccccc12)C(=O)N[C@@H](CCCCN)C(=O)N[C@@H](Cc1ccccc1)C(=O)N[C@@H](CCCN=C(N)N)C(=O)N1CCC[C@H]1C(=O)N[C@@H](Cc1c[nH]c2ccccc12)C(=O)N[C@@H](CCCCN)C(=O)N[C@@H](CCCCN)C(=O)N[C@@H](CCCN=C(N)N)C(=O)N[C@H](C(N)=O)[C@@H](C)O [FIKWKFRPWKKRT]
MIC [1]: 16 µM (≈ 29.1 µg/mL)
MIC [2]: 8 µM (≈ 14.6 µg/mL)
MIC [3]: 22.6 µM (≈ 41.2 µg/mL)
MIC [4]: 4 µM (≈ 7.28 µg/mL)

SMILES: CC[C@H](C)[C@H](NC(=O)CNC(=O)[C@H](CO)NC(=O)[C@H](CC(C)C)NC(=O)[C@@H](NC(=O)[C@H](CCCN=C(N)N)NC(=O)CNC(=O)[C@@H](NC(=O)[C@H](CC(C)C)NC(=O)[C@@H]1CCCN1C(=O)[C@H](C)NC(=O)[C@@H](N)Cc1ccccc1)[C@@H](C)CC)C(C)C)C(=O)N[C@@H](CC(C)C)C(N)=O [FAPLIGRVLSGIL]
MIC (Bacillus megaterium Bm11): 5 µM (≈ 6.77 µg/mL)
MIC [5]: 10 µM (≈ 13.5 µg/mL)
MIC [6]: > 40 µM
MIC [7]: 20 µM (≈ 27.1 µg/mL)
MIC (Staphylococcus capitis 1): 20 µM (≈ 27.1 µg/mL)
MIC [8]: ≥ 40 µM

SMILES: CC[C@H](C)[C@H](NC(=O)CNC(=O)[C@H](CO)NC(=O)[C@H](CC(C)C)NC(=O)[C@H](CC(C)C)NC(=O)CNC(=O)[C@@H](NC(=O)[C@@H](NC(=O)[C@@H]1CCCN1C(=O)CNC(=O)[C@@H](N)Cc1ccccc1)C(C)C)[C@@H](C)CC)C(=O)N[C@@H](CC(C)C)C(=O)N[C@@H](CCCCN)C(=O)N[C@@H](CO)C(=O)N[C@@H](CC(C)C)C(=O)N[C@@H](CC(C)C)C(=O)O [FGPVIGLLSGILKSLL]
MIC (Botrytis cinerea): 5 µM (≈ 8.14 µg/mL)
MIC [5]: > 200 µM
MIC [13]: ≥ 200 µM
MIC [14]: ≥ 50 µM

SMILES: CC[C@H](C)[C@H](NC(=O)[C@H](CCCN=C(N)N)NC(=O)[C@H](CCC(N)=O)NC(=O)[C@@H](NC(=O)[C@@H](NC(=O)[C@H](CCCN=C(N)N)NC(=O)[C@H](CCCCN)NC(=O)[C@@H](N)Cc1ccccc1)[C@@H](C)CC)C(C)C)C(=O)N[C@@H](CCCCN)C(=O)N[C@@H](CC(=O)O)C(=O)N[C@@H](Cc1ccccc1)C(=O)N[C@@H](CC(C)C)C(=O)N[C@@H](CCCN=C(N)N)C(N)=O [FKRIVQRIKDFLR]
MIC [17]: 16 µM (≈ 27.5 µg/mL)
MIC [18]: 4 µM (≈ 6.87 µg/mL)
MIC (Candida parapsilosis): ≥ 116 µM
MIC [19]: 32 µM (≈ 55 µg/mL)
MIC [6]: 16 µM (≈ 27.5 µg/mL)
MIC [15]: ≥ 116 µM
MIC (Escherichia coli K-12): ≥ 40 µM
MIC [20]: 16 µM (≈ 27.5 µg/mL)
MIC (Escherichia coli UB1005): 16 µM (≈ 27.5 µg/mL)
MIC [21]: 8 µM (≈ 13.7 µg/mL)
MIC [22]: ≥ 32 µM
MIC [4]: 16 µM (≈ 27.5 µg/mL)
MIC [23]: 32 µM (≈ 55 µg/mL)
MIC [24]: 16 µM (≈ 27.5 µg/mL)
MIC [25]: 16 µM (≈ 27.5 µg/mL)
MIC [26]: 16 µM (≈ 27.5 µg/mL)
MIC [27]: 16 µM (≈ 27.5 µg/mL)
MIC [28]: 8 µM (≈ 13.7 µg/mL)
MIC [29]: 16 µM (≈ 27.5 µg/mL)

The next lines start with the values.

MIC [1]: 8 µM (≈ 11.6 µg/mL)
MIC [2]: 8 µM (≈ 11.6 µg/mL)
MIC [3]: 2.83 µM (≈ 4.08 µg/mL)
MIC [4]: 2 µM (≈ 2.89 µg/mL)
SMILES: CC[C@H](C)[C@H](NC(=O)[C@H](CCCCN)NC(=O)[C@H](CCCN=C(N)N)NC(=O)[C@H](Cc1c[nH]c2ccccc12)NC(=O)[C@H](Cc1c[nH]c2ccccc12)NC(=O)[C@@H](N)CCCN=C(N)N)C(=O)N[C@@H](Cc1c[nH]c2ccccc12)C(=O)N[C@@H](CCCCN)C(=O)N[C@@H](Cc1c[nH]c2ccccc12)C(N)=O [RWWRKIWKW]

MIC [9]: 1 µM (≈ 1.52 µg/mL)
MIC [10]: 1 µM (≈ 1.52 µg/mL)
MIC [6]: 2 µM (≈ 3.03 µg/mL)
MIC [11]: 2 µM (≈ 3.03 µg/mL)
MIC [12]: 1 µM (≈ 1.52 µg/mL)
SMILES: CC[C@H](C)[C@H](N)C(=O)N[C@@H](CC(C)C)C(=O)NCC(=O)N[C@@H](CCCCN)C(=O)N[C@H](C(=O)N[C@@H](Cc1c[nH]c2ccccc12)C(=O)N[C@@H](CCCCN)C(=O)NCC(=O)N[C@@H](CCCCN)C(=O)N[C@@H](CCCCN)C(=O)N[C@@H](CO)C(=O)N[C@@H](CC(C)C)C(=O)N[C@@H](Cc1ccccc1)C(N)=O)[C@@H](C)CC [ILGKIWKGKKSLF]

MIC (Bacillus megaterium Bm11): 2.5 µM (≈ 3.53 µg/mL)
MIC [5]: 2.5 µM (≈ 3.53 µg/mL)
MIC [6]: > 40 µM
MIC [7]: 2.5 µM (≈ 3.53 µg/mL)
MIC (Staphylococcus capitis 1): 5 µM (≈ 7.05 µg/mL)
MIC [8]: 20 µM (≈ 28.2 µg/mL)
SMILES: CC[C@H](C)[C@H](NC(=O)[C@H](C)NC(=O)[C@H](CO)NC(=O)[C@H](CC(C)C)NC(=O)[C@@H](NC(=O)[C@H](CCCN=C(N)N)NC(=O)CNC(=O)[C@@H](NC(=O)[C@H](CC(C)C)NC(=O)[C@@H]1CCCN1C(=O)[C@H](CC(C)C)NC(=O)[C@@H](N)Cc1ccccc1)[C@@H](C)CC)C(C)C)C(=O)N[C@@H](CC(C)C)C(N)=O [FLPLIGRVLSAIL]

MIC [9]: 2.4 µM (≈ 6.73 µg/mL)
MIC [10]: 3.2 µM (≈ 8.97 µg/mL)
MIC [15]: 4.3 µM (≈ 12.1 µg/mL)
MIC [16]: 3.6 µM (≈ 10.1 µg/mL)
SMILES: CC[C@H](C)[C@H](NC(=O)CN)C(=O)NCC(=O)N[C@@H](C)C(=O)N[C@H](C(=O)N[C@@H](CC(C)C)C(=O)N[C@@H](CCCCN)C(=O)N[C@H](C(=O)N[C@@H](C)C(=O)N[C@H](C(=O)N[C@H](C(=O)NCC(=O)N[C@@H](CC(C)C)C(=O)N1CCC[C@H]1C(=O)N[C@@H](C)C(=O)N[C@@H](CC(C)C)C(=O)N[C@H](C(=O)N[C@@H](CO)C(=O)N[C@@H](Cc1c[nH]c2ccccc12)C(=O)N[C@H](C(=O)N[C@@H](CCCCN)C(=O)N[C@@H](CCCN=C(N)N)C(=O)N[C@@H](CCCCN)C(=O)N[C@@H](CCCN=C(N)N)C(=O)N[C@@H](CCC(N)=O)C(=O)N[C@@H](CCC(N)=O)C(N)=O)[C@@H](C)CC)[C@@H](C)CC)[C@@H](C)O)[C@@H](C)O)C(C)C)C(C)C [GIGAVLKVATTGLPALISWIKRKRQQ]

MIC (Escherichia coli JM109): ≥ 37.4 µM
MIC [30]: 14 µM
MIC (Staphylococcus aureus): > 49.9 µM
SMILES: CC[C@H](C)[C@H](NC(=O)[C@H](C)NC(=O)[C@H](CC(C)C)NC(=O)[C@H](CS)NC(=O)[C@H](Cc1cnc[nH]1)NC(=O)[C@H](C)NC(=O)[C@H](C)NC(=O)[C@H](CS)NC(=O)[C@@H](N)CC(C)C)C(=O)NCC(=O)N[C@@H](CCCN=C(N)N)C(=O)N[C@@H](CCCN=C(N)N)C(N)=O [LCAAHCLAIGRR]

MIC (Escherichia coli JM109): 1 µM (≈ 1.86 µg/mL)
SMILES: CC[C@H](C)[C@H](N)C(=O)N[C@@H](CC(C)C)C(=O)N1CCC[C@H]1C(=O)N[C@@H](Cc1c[nH]c2ccccc12)C(=O)N[C@@H](CCCCN)C(=O)N[C@@H](Cc1c[nH]c2ccccc12)C(=O)N[C@@H](CCCCN)C(=O)N[C@@H](Cc1ccccc1)C(=O)N[C@@H](Cc1ccccc1)C(=O)N1CCC[C@H]1C(=O)N[C@@H](Cc1c[nH]c2ccccc12)C(=O)N[C@@H](CCCN=C(N)N)C(=O)N[C@@H](CCCN=C(N)N)C(N)=O [ILPWKWKFFPWRR]

— DBAASP
